How the values were obtained:
[1] = system: T47D (PI3Kα-H1047R) cell line; experiment: HTRF phospho-AKT(S473) cell assay in T47D cells; assay type: cell-based, human; conditions: Homo sapiens; HTRF phospho-AKT(S473), T47D (PI3Kα-H1047R) cells, 2 hours compound incubation
Procedure, shortened: (§1)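 T47D: RPMI + 10% FBS + 0.2 units/mL insulin, top 5 μM. SKBR3: McCoy's 5A + 10% FBS, top 10 μM, 70 ng/ml PDGF-BB last 15 min. Both: 12-pt 1:3, 2 h, 37° C, max 0.5% DMSO; HTRF pAKT(S473); IC50.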

[2] = system: SKBR3 (PI3Kα-Wild Type) cell line; experiment: HTRF phospho-AKT(S473) cell assay in SKBR3 cells; assay type: cell-based, human; conditions: Homo sapiens, SK-BR-3; HTRF phospho-AKT(S473), SKBR3 (PI3Kα-Wild Type) cells, 2 hours compound incubation, PDGF-BB stimulated
Procedure, shortened: as §1

In the case of `Cc1cc([C@@H](C)Nc2ccc(Cl)nc2C(=O)NS(C)(=O)=O)c2nc(N3C[C@@H]4[C@H](C3)[C@H]4c3ccnc(C)c3F)n(C)c(=O)c2c1` [Compound 548, 6-chloro-3-(((R)-1-(2-((1R,5S,6S)-6-(3-fluoro-2-methylpyridin-4-yl)-3-azabicyclo[3.1.0]hexan-3-yl)-3,6-dimethyl-4-oxo-3,4-dihydroquinazolin-8-yl)ethyl)amino)-N-(methylsulfonyl) picolinamide], the IC50 [1] is reported as 250 to 500 nM and the IC50 [2] is reported as 1000 to 5000 nM.
Work on `Cc1cc([C@@H](C)Nc2ccc(Cl)nc2C(=O)NS(C)(=O)=O)c2nc(N3CCC(n4ncnc4C)CC3)n(C)c(=O)c2c1` [Compound 549, (R)-6-chloro-3-((1-(3,6-dimethyl-2-(4-(5-methyl-1H-1,2,4-triazol-1-yl)piperidin-1-yl)-4-oxo-3,4-dihydroquinazolin-8-yl)ethyl)amino)-N-(methylsulfonyl) picolinamide] yielded an IC50 [1] of under 250 nM and an IC50 [2] of 1000 to 5000 nM.
`Cc1cc([C@@H](C)Nc2ccc(Cl)nc2C(=O)NS(C)(=O)=O)c2nc(N3CCC(c4ncn(C(C)C)n4)CC3)n(C)c(=O)c2c1` [Compound 550, (R)-6-chloro-3-((1-(2-(4-(1-isopropyl-1H-1,2,4-triazol-3-yl)piperidin-1-yl)-3,6-dimethyl-4-oxo-3,4-dihydroquinazolin-8-yl)ethyl)amino)-N-(methylsulfonyl) picolinamide] gave an IC50 [1] of 250 to 500 nM and an IC50 [2] of at least 5000 nM.
With `Cc1cc([C@@H](C)Nc2ccc(Cl)nc2C(=O)NS(C)(=O)=O)c2nc(N3C[C@@H]4[C@H](C3)[C@H]4c3ncn(C(C)C)n3)n(C)c(=O)c2c1` [Compound 551, 6-chloro-3-(((R)-1-(2-((1R,5S,6R)-6-(1-isopropyl-1H-1,2,4-triazol-3-yl)-3-azabicyclo[3.1.0]hexan-3-yl)-3,6-dimethyl-4-oxo-3,4-dihydroquinazolin-8-yl)ethyl)amino)-N-(methylsulfonyl) picolinamide] the IC50 [1] was under 250 nM and the IC50 [2] was at least 5000 nM.
`Cc1cc([C@@H](C)Nc2ccc(Cl)nc2C(=O)NS(C)(=O)=O)c2nc(N3CCC(C)(c4cc[nH]n4)CC3)n(C)c(=O)c2c1` [Compound 552, (R)-6-chloro-3-((1-(3,6-dimethyl-2-(4-methyl-4-(1H-pyrazol-3-yl)piperidin-1-yl)-4-oxo-3,4-dihydroquinazolin-8-yl)ethyl)amino)-N-(methylsulfonyl) picolinamide] gave an IC50 [1] of 250 to 500 nM and an IC50 [2] of at least 5000 nM.
`Cc1cc([C@@H](C)Nc2ccc(Cl)nc2C(=O)NS(C)(=O)=O)c2nc(N3CCN(c4nccnc4C)CC3)n(C)c(=O)c2c1` [Compound 553, (R)-6-chloro-3-((1-(3,6-dimethyl-2-(4-(3-methylpyrazin-2-yl)piperazin-1-yl)-4-oxo-3,4-dihydroquinazolin-8-yl)ethyl)amino)-N-(methylsulfonyl) picolinamide] gave an IC50 [1] of under 250 nM and an IC50 [2] of 1000 to 5000 nM.
`COc1cc(N2CCN(c3nc4c([C@@H](C)Nc5ccc(Cl)nc5C(=O)NS(C)(=O)=O)cc(C)cc4c(=O)n3C)CC2)ccn1` [Compound 554, (R)-6-chloro-3-((1-(2-(4-(2-methoxypyridin-4-yl)piperazin-1-yl)-3,6-dimethyl-4-oxo-3,4-dihydroquinazolin-8-yl)ethyl)amino)-N-(methylsulfonyl) picolinamide] showed an IC50 [1] of under 250 nM and an IC50 [2] of 1000 to 5000 nM.
`COc1ncc(N2CCN(c3nc4c([C@@H](C)Nc5ccc(Cl)nc5C(=O)NS(C)(=O)=O)cc(C)cc4c(=O)n3C)CC2)cn1` [Compound 555, (R)-6-chloro-3-((1-(2-(4-(2-methoxypyrimidin-5-yl)piperazin-1-yl)-3,6-dimethyl-4-oxo-3,4-dihydroquinazolin-8-yl)ethyl)amino)-N-(methylsulfonyl) picolinamide] was tested, and the IC50 [1] was under 250 nM and the IC50 [2] was 1000 to 5000 nM.

— US12281122B1, “PI3K inhibitors” (Cogent Biosciences, Inc., priority 2023, dated 2025)
